Among the data in the OligoGym collection are 3 h FOB score values, retold here.

The target of this data set is UBE3A-ATS. The data set is described as follows: mouse, dose not given. The conditions noted are these: ASO.

HELM strings list units from the 5' end as sugar, base in round brackets, then linkage (d deoxyribose, r ribose, m 2'-O-methyl, p phosphodiester). Strings are as the collection lists them; they lack the last nucleoside at the 3' end of the tested compound. [moe] = 2'-O-(2-methoxyethyl) (MOE); [sp] = phosphorothioate linkage; [m5C] = 5-methylcytosine

Regarding “RNA1{[moe](G)[sp].[moe](G)p.[moe](T)p.[moe]([m5C])p.[moe](A)p.[moe](T)p.d([m5C])[sp].d(T)[sp].d([m5C])[sp].d(G)[sp].d(G)[sp].d(G)[sp].d(T)[sp].d(A)[sp].d(T)[sp].d(A)[sp].[moe](T)p.[moe](A)[sp].[moe](A)}$$$$ (last 3' nucleoside missing)”, the 3 h FOB score is 6 score 0-7.

As for “RNA1{[moe](G)[sp].[moe](G)p.[moe](T)p.[moe]([m5C])p.[moe](A)p.d(A)[sp].d([m5C])[sp].d([m5C])[sp].d(A)[sp].d(A)[sp].d(T)[sp].d(T)[sp].d(T)[sp].d(G)[sp].d([m5C])[sp].[moe](T)p.[moe](A)p.[moe](T)[sp].[moe](T)}$$$$ (last 3' nucleoside missing)”, the 3 h FOB score amounted to 3.8 score 0-7.

Regarding “RNA1{[moe](G)[sp].[moe](G)p.[moe](T)p.[moe]([m5C])p.[moe](A)p.d(G)[sp].d(A)[sp].d(T)[sp].d(T)[sp].d([m5C])[sp].d([m5C])[sp].d(T)[sp].d(A)[sp].d(A)[sp].d(A)[sp].[moe](T)p.[moe](A)p.[moe]([m5C])[sp].[moe](G)}$$$$ (last 3' nucleoside missing)”, the 3 h FOB score stood at 1 score 0-7. “RNA1{[moe](G)[sp].[moe](G)p.[moe](T)p.[moe]([m5C])p.[moe](A)p.d(T)[sp].d([m5C])[sp].d(T)[sp].d([m5C])[sp].d(G)[sp].d(G)[sp].d(G)[sp].d(T)[sp].d(A)[sp].d(T)[sp].[moe](A)p.[moe](T)p.[moe](A)[sp].[moe](A)}$$$$ (last 3' nucleoside missing)” returned a 3 h FOB score of 4.2 score 0-7. As for “RNA1{[moe](G)[sp].[moe](G)p.[moe](T)p.[moe]([m5C])p.[moe]([m5C])p.d(A)[sp].d(T)[sp].d(A)[sp].d(G)[sp].d(A)[sp].d(T)[sp].d(G)[sp].d(T)[sp].d([m5C])[sp].d(A)[sp].[moe](G)p.[moe](T)p.[moe](T)[sp].[moe](A)}$$$$ (last 3' nucleoside missing)”, the 3 h FOB score is 5.5 score 0-7. “RNA1{[moe](G)[sp].[moe](G)p.[moe](T)p.[moe]([m5C])p.d(A)[sp].d(A)[sp].d([m5C])[sp].d([m5C])[sp].d(A)[sp].d(A)[sp].d(T)[sp].d(T)[sp].d(T)[sp].d(G)[sp].[moe]([m5C])p.[moe](T)p.[moe](A)p.[moe](T)[sp].[moe](T)}$$$$ (last 3' nucleoside missing)” came in with a 3 h FOB score of 4.7 score 0-7.

As to “RNA1{[moe](G)[sp].[moe](G)p.[moe](T)p.[moe]([m5C])p.d(A)[sp].d(T)[sp].d([m5C])[sp].d(T)[sp].d([m5C])[sp].d(G)[sp].d(G)[sp].d(G)[sp].d(T)[sp].d(A)[sp].[moe](T)p.[moe](A)p.[moe](T)p.[moe](A)[sp].[moe](A)}$$$$ (last 3' nucleoside missing)”, the 3 h FOB score was 5.5 score 0-7.

The substance “RNA1{[moe](G)[sp].[moe](G)p.[moe]([m5C])p.[moe](A)p.[moe](A)p.d(G)[sp].d([m5C])[sp].d(A)[sp].d(A)[sp].d([m5C])[sp].d(T)[sp].d(A)[sp].d(T)[sp].d(G)[sp].d(G)[sp].[moe](G)p.[moe](T)p.[moe](G)[sp].[moe](G)}$$$$ (last 3' nucleoside missing)” returned a 3 h FOB score of 6.2 score 0-7. Under “RNA1{[moe](G)[sp].[moe](G)p.[moe]([m5C])p.[moe](A)p.[moe](A)p.d(T)[sp].d(G)[sp].d(G)[sp].d(A)[sp].d([m5C])[sp].d(T)[sp].d(T)[sp].d(A)[sp].d(G)[sp].d(T)[sp].[moe](A)p.[moe]([m5C])p.[moe](A)[sp].[moe]([m5C])}$$$$ (last 3' nucleoside missing)” stands 2.3 score 0-7; under “RNA1{[moe](G)[sp].[moe](G)p.[moe]([m5C])p.[moe](A)p.[moe](G)p.d([m5C])[sp].d(T)[sp].d([m5C])[sp].d([m5C])[sp].d(T)[sp].d(G)[sp].d(A)[sp].d([m5C])[sp].d(A)[sp].d(A)[sp].[moe](A)p.[moe](T)p.[moe](T)[sp].[moe](A)}$$$$ (last 3' nucleoside missing)”, 4 score 0-7; under “RNA1{[moe](G)[sp].[moe](G)p.[moe]([m5C])p.[moe](T)p.[moe](T)p.d(T)[sp].d(A)[sp].d(T)[sp].d(A)[sp].d([m5C])[sp].d(T)[sp].d(T)[sp].d(T)[sp].d(A)[sp].d([m5C])[sp].[moe]([m5C])p.[moe]([m5C])p.[moe](A)[sp].[moe](A)}$$$$ (last 3' nucleoside missing)”, 1 score 0-7. Under “RNA1{[moe](G)[sp].[moe](G)p.[moe]([m5C])p.[moe]([m5C])p.[moe](T)p.d(G)[sp].d(A)[sp].d([m5C])[sp].d(T)[sp].d(A)[sp].d(G)[sp].d(G)[sp].d([m5C])[sp].d(A)[sp].d(T)[sp].[moe](T)p.[moe](G)p.[moe](A)[sp].[moe](A)}$$$$ (last 3' nucleoside missing)” stands 3 score 0-7; under “RNA1{[moe](G)[sp].[moe](T)p.[moe](A)p.[moe](A)p.[moe](G)p.d(A)[sp].d(G)[sp].d(T)[sp].d(T)[sp].d(A)[sp].d(G)[sp].d([m5C])[sp].d(T)[sp].d(A)[sp].d(T)[sp].[moe](T)p.[moe]([m5C])p.[moe]([m5C])[sp].[moe]([m5C])}$$$$ (last 3' nucleoside missing)”, 4 score 0-7. Under “RNA1{[moe](G)[sp].[moe](T)p.[moe](A)p.[moe](A)p.[moe](G)p.d(T)[sp].d(A)[sp].d(T)[sp].d(A)[sp].d(G)[sp].d(A)[sp].d(T)[sp].d(G)[sp].d([m5C])[sp].d([m5C])[sp].[moe](T)p.[moe]([m5C])p.[moe](T)[sp].[moe]([m5C])}$$$$ (last 3' nucleoside missing)” stands 3.8 score 0-7; under “RNA1{[moe](G)[sp].[moe](T)p.[moe](A)p.[moe](A)p.[moe](T)p.d(G)[sp].d(A)[sp].d(T)[sp].d(T)[sp].d(T)[sp].d(G)[sp].d([m5C])[sp].d([m5C])[sp].d([m5C])[sp].d(T)[sp].[moe]([m5C])p.[moe]([m5C])p.[moe](T)[sp].[moe](A)}$$$$ (last 3' nucleoside missing)”, 6 score 0-7. On to “RNA1{[moe](G)[sp].[moe](T)p.[moe](A)p.[moe](G)p.[moe](A)p.d(T)[sp].d(A)[sp].d(A)[sp].d([m5C])[sp].d(T)[sp].d(T)[sp].d(T)[sp].d(A)[sp].d([m5C])[sp].d([m5C])[sp].[moe](T)p.[moe](T)p.[moe](G)[sp].[moe](A)}$$$$ (last 3' nucleoside missing)”, for which the 3 h FOB score was found to be 0 score 0-7.

In turn, “RNA1{[moe](G)[sp].[moe](T)p.[moe](A)p.[moe](G)p.[moe](G)p.d(A)[sp].d(G)[sp].d(A)[sp].d(T)[sp].d(A)[sp].d(G)[sp].d(G)[sp].d([m5C])[sp].d(A)[sp].d(G)[sp].[moe](T)p.[moe](G)p.[moe]([m5C])[sp].[moe](A)}$$$$ (last 3' nucleoside missing)” came in with a 3 h FOB score of 5 score 0-7.

In turn, “RNA1{[moe](G)[sp].[moe](T)p.[moe](A)p.[moe](G)p.[moe]([m5C])p.d(T)[sp].d(A)[sp].d(T)[sp].d(A)[sp].d(G)[sp].d(G)[sp].d(T)[sp].d(G)[sp].d(T)[sp].d([m5C])[sp].[moe](A)p.[moe]([m5C])p.[moe](A)[sp].[moe](T)}$$$$ (last 3' nucleoside missing)” showed a 3 h FOB score of 6.2 score 0-7. In the case of “RNA1{[moe](G)[sp].[moe](T)p.[moe](A)p.[moe](T)p.[moe](A)p.d(T)[sp].d(A)[sp].d([m5C])[sp].d(T)[sp].d([m5C])[sp].d([m5C])[sp].d(A)[sp].d(G)[sp].d(G)[sp].d(T)[sp].[moe](T)p.[moe](G)p.[moe](T)[sp].[moe](G)}$$$$ (last 3' nucleoside missing)”, the 3 h FOB score came out at 5.2 score 0-7.

In the case of “RNA1{[moe](G)[sp].[moe](T)p.[moe](A)p.[moe](T)p.[moe](A)p.d(T)[sp].d(T)[sp].d(A)[sp].d(G)[sp].d(T)[sp].d([m5C])[sp].d(T)[sp].d(A)[sp].d(A)[sp].d(G)[sp].[moe](G)p.[moe]([m5C])p.[moe](A)[sp].[moe](G)}$$$$ (last 3' nucleoside missing)”, the 3 h FOB score turned out to be 3.7 score 0-7. The substance “RNA1{[moe](G)[sp].[moe](T)p.[moe](A)p.[moe](T)p.[moe](A)p.d(T)[sp].d(T)[sp].d(G)[sp].d(T)[sp].d(A)[sp].d(G)[sp].d([m5C])[sp].d(T)[sp].d(T)[sp].d(T)[sp].[moe](T)p.[moe]([m5C])p.[moe](T)[sp].[moe](A)}$$$$ (last 3' nucleoside missing)” yielded a 3 h FOB score of 6.2 score 0-7.

“RNA1{[moe](G)[sp].[moe](T)p.[moe](A)p.[moe](T)p.[moe](G)p.d(G)[sp].d(T)[sp].d(A)[sp].d(T)[sp].d([m5C])[sp].d(T)[sp].d(T)[sp].d(G)[sp].d([m5C])[sp].d(A)[sp].[moe](G)p.[moe](T)p.[moe](A)[sp].[moe](G)}$$$$ (last 3' nucleoside missing)” registered a 3 h FOB score of 5.2 score 0-7. The substance “RNA1{[moe](G)[sp].[moe](T)p.[moe](A)p.[moe](T)p.[moe](T)p.d(G)[sp].d(A)[sp].d([m5C])[sp].d(A)[sp].d([m5C])[sp].d([m5C])[sp].d(T)[sp].d([m5C])[sp].d([m5C])[sp].d(A)[sp].[moe](A)p.[moe]([m5C])p.[moe](T)[sp].[moe](G)}$$$$ (last 3' nucleoside missing)” yielded a 3 h FOB score of 2 score 0-7. Under “RNA1{[moe](G)[sp].[moe](T)p.[moe](A)p.[moe](T)p.[moe]([m5C])p.d(A)[sp].d(G)[sp].d(G)[sp].d([m5C])[sp].d(A)[sp].d(A)[sp].d([m5C])[sp].d(A)[sp].d(G)[sp].d(A)[sp].[moe](A)p.[moe](T)p.[moe]([m5C])[sp].[moe](T)}$$$$ (last 3' nucleoside missing)” stands 4.3 score 0-7; under “RNA1{[moe](G)[sp].[moe](T)p.[moe](A)p.[moe]([m5C])p.[moe](A)p.d(A)[sp].d(T)[sp].d(G)[sp].d([m5C])[sp].d(A)[sp].d(T)[sp].d(G)[sp].d(T)[sp].d(G)[sp].d(G)[sp].[moe](G)p.[moe]([m5C])p.[moe]([m5C])[sp].[moe](T)}$$$$ (last 3' nucleoside missing)”, 4 score 0-7; under “RNA1{[moe](G)[sp].[moe](T)p.[moe](A)p.[moe]([m5C])p.[moe](A)p.d([m5C])[sp].d(T)[sp].d(A)[sp].d(T)[sp].d(T)[sp].d(G)[sp].d(T)[sp].d(T)[sp].d(T)[sp].d(T)[sp].[moe](G)p.[moe](A)p.[moe](T)[sp].[moe](A)}$$$$ (last 3' nucleoside missing)”, 2.5 score 0-7.
